Where two headings read alike, the source gives them in different places.
Columns and labels:
[1] = Stability of coelenterazines in reporter reagent buffer (T90); details: time for luminescent signal to decay by 10% at 22° C. in reporter reagent buffer; read with IV lysate
OgLuc variant 9B8 = target: T1, OgLuc variant 9B8 (Oplophorus gracilirostris, UniProt Q9GV45, A31E/A60K/A81I/F95Y/I117V/L99Q/M102K/N193R/P142E/Q151K/Q38R/Q45L/V71I/Y165I); assay: LOPAC library inhibition screen; assay type: biochemical; details: preliminary LOPAC screen, 9B8, 20 μM substrate
T1 construct: The IV-based variants were generated in a pF4Ag vector background without HT7; made in house; host or cells: E. coli (crude lysate)
T1 sequence (Q9GV45 other isoform, or with tags, fused parts or gaps with the stated changes): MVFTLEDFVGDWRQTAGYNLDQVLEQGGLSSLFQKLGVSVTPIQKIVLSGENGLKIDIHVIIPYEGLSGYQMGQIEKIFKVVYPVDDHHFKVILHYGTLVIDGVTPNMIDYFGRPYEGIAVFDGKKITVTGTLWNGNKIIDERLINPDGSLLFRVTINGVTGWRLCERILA
Experimental: To determine the susceptibility of the OgLuc variants to off-target interactions, the activity of the 9B8 and L27V variants was screened against a LOPAC (library of pharmacologically active compounds) library. A LOPAC 1280 library (Sigma) was prepared by diluting the compounds to 1 mM in DMSO. On the day of the assay, the compounds were diluted to 20 μM in 1×PBS, and 10 μL transferred to a 96-well, white plate. To each well, 10 μL of purified 9B8, L27V or firefly luciferase (Luc2) enzyme diluted 10^−4 in Glo Lysis Buffer (Promega Corp.) was added and incubated at room temperature for 2 min. […] For assaying firefly luciferase, the BRIGHT-GLO™ Assay reagent (Promega Corp.) was used according to the manufacturer's protocol. As a negative control, 8 wells of each plate contained 1×PBS+2% glycerol. As a positive control, 8 wells of each plate contained 2 mM Suramin in 2% DMSO or 2 mM luciferase inhibitor 1 in 2% DMSO (Calbiochem).

[2] = system: red click beetle luciferase and OgLuc variant 9B8 opt; assay: Multiplexing with red click beetle luciferase, modified DUAL-GLO assay; assay type: biochemical; details: first step, red click beetle luciferase signal
Experimental: (§1) A. Lysates of E. coli expressing the variant 9B8 opt were prepared as previously described in Example 27 and diluted 1000-fold in DMEM without phenol red+0.1% PRIONEX®. Luminescence from a sample containing 6.3 μg/mL of purified red click beetle luciferase and E. coli lysate expressing the variant 9B8 opt was detected using a modified DUAL-GLO® Luciferase Assay System (Promega Corp.). DUAL-GLO® STOP&GLO® Reagent containing 20 μM coelenterazine-h and DUAL-GLO® STOP&GLO® Reagent containing 20 μM PBI 3939 were used, according to the manufacturer's protocol, to detect the red click beetle luciferase and OgLuc variant 9B8 luciferase from a single sample. Three replicates were performed.
(§2) Luminescence was detected on a Turner MODULUS™ luminometer. […] The standard deviation (“+/−”) and coefficient of variance (“CV”) are also shown. A “no coelenterazine” control was performed to illustrate the amount of quenching of the red click beetle signal by the DUAL-GLO® STOP&GLO® Reagent of the DUAL-GLO® Luciferase Assay System in the absence of coelenterazine. The “no coelenterazine” control yielded a 349-fold quench.

[3] = target: T2, red click beetle luciferase and OgLuc variant 9B8 opt (Oplophorus gracilirostris, UniProt Q9GV45, A31E/A60K/A81I/F95Y/I117V/L99Q/M102K/N193R/P142E/Q151K/Q38R/Q45L/V71I/Y165I); assay: as above; assay type: biochemical; details: 9B8 opt, STOP&GLO Reagent with 20 μM of the substrate
T2 construct: The IV-based variants were generated in a pF4Ag vector background without HT7; made in house; host or cells: E. coli (crude lysate, diluted 1000-fold)
T2 sequence (Q9GV45 other isoform, or with tags, fused parts or gaps with the stated changes): as above
Experimental: as §1, §2

HEK293 cells [4] = assay: Live cell luminescence with PBI-3939; assay type: cell-based, human; details: cells in culture, 60 μM
Experimental: A. The use of OgLuc variants and PBI-3939 in live cells was examined HEK293 cells were plated in 96-well plates at 15,000 cells/well and grown overnight at 37° C. The following day, the cells were transiently transfected using TRANSIT®-LT1 in 3 replicates with 100 ng of hRL or 9B8 opt in pF4Ag and grown overnight at 37° C. The following day the growth media was removed and replaced with media containing 60 μM VIVIREN™ Live Cell Substrate (Promega Corp.), 60 μM ENDUREN™ Live Cell Substrate (Promega Corp.), or 60 μM PBI-3939 for both hRL and 9B8 opt transfected cells. Non-transfected cells were used as background control. The plate was incubated at 37° C. during the course of one day and periodically measured on a TECAN® GENIOS™ Pro luminometer, i.e., 11 times over the course of 24 hrs.

HEK293 cells [5] = system: HEK293 cells

Molecule	Stability (pH 8) (T90 in hrs) [1]	Stability (pH 8) (T90 in hrs)	further results
Cc1ccc(C(=O)Nc2ccc(S(=O)(=O)O)c3cc(S(=O)(=O)O)cc(S(=O)(=O)O)c23)cc1NC(=O)c1cccc(NC(=O)Nc2cccc(C(=O)Nc3cc(C(=O)Nc4ccc(S(=O)(=O)O)c5cc(S(=O)(=O)O)cc(S(=O)(=O)O)c45)ccc3C)c2)c1 [Suramin]			inhibition of OgLuc (OgLuc variant 9B8): inhibitor of OgLuc
coelenterazine-h [reference compound]	2.1 hrs		click beetle (average luminescence) [2]: 5,082,100; Ogluc (average luminescence) [3]: 921,440
Oc1ccc(Cc2nc3c(Cc4ccccc4)nc(-c4ccc(O)cc4)cn3c2O)cc1 [native coelenterazine, coelenterazine]		1.7 hrs	
O=c1c(Cc2ccccc2)nc2c(Cc3ccccc3)[nH]c(-c3ccccc3)cn1-2 [coelenterazine-hh, bisdeoxycoelenterazine, reference compound]	2.0 hrs		
O=c1c(Cc2ccco2)nc2c(Cc3ccccc3)[nH]c(-c3ccccc3)cn1-2 [PBI-3939, 8-benzyl-2-(furan-2-ylmethyl)-6-phenylimidazo[1,2-a]pyrazin-3(7H)-one]		4.1 hrs	cell permeability (HEK293 cells [4]): can permeate cells in culture; biocompatibility in terms of cell viability (HEK293 cells [5]): comparable biocompatibility to native coelenterazine; click beetle (average luminescence) [2]: 5,078,547; Ogluc (average luminescence) [3]: 2,996,940

Continued, in another order:

Stability (pH 8) (T90 in hrs) [1]	Stability (pH 8) (T90 in hrs)	Molecule	further results
3.3 hrs		O=c1c(Cc2ccco2)nc2c(Cc3ccccc3)[nH]c(-c3ccc(O)cc3)cn1-2 [PBI-3945]	
3.5 hrs		O=c1c(Cc2cccs2)nc2c(Cc3ccccc3)[nH]c(-c3ccc(O)cc3)cn1-2 [PBI-4002]	
	2.9 hrs	O=c1c(Cc2cccs2)nc2c(Cc3ccccc3)[nH]c(-c3ccccc3)cn1-2 [PBI-3889, 8-benzyl-6-phenyl-2-(thiophen-2-ylmethyl)imidazo[1,2-a]pyrazin-3(7H)-one]	
	2.8 hrs	Cc1[nH]c(-c2ccccc2)cn2c(=O)c(Cc3ccc(O)cc3)nc1-2 [PBI-3896, 2-(4-hydroxybenzyl)-8-methyl-6-phenylimidazo[1,2-a]pyrazin-3(7H)-one]	
